Assay results as given in PubChem BioAssay (NCI).
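Each compound was tested at five concentrations against cells in 96-well plates for 48 hours. At the TGI there is no net growth.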

What was measured:
Experiment in all cases: growth of human tumour cells (NCI), 48 h
786-0 renal = system: 786-0 renal
A498 renal = system: A498 renal
A549 NSCLC = system: A549 NSCLC
ACHN renal = system: ACHN renal
BT-549 breast = system: BT-549 breast
CAKI-1 renal = system: CAKI-1 renal
CCRF-CEM leukemia = system: CCRF-CEM leukemia
COLO 205 colon = system: COLO 205 colon
DU-145 prostate = system: DU-145 prostate
EKVX NSCLC = system: EKVX NSCLC
HCC-2998 colon = system: HCC-2998 colon
HCT-116 colon = system: HCT-116 colon
HCT-15 colon = system: HCT-15 colon
HL-60(TB) leukemia = system: HL-60(TB) leukemia
HOP-62 NSCLC = system: HOP-62 NSCLC
HOP-92 NSCLC = system: HOP-92 NSCLC
HS 578T breast = system: HS 578T breast
HT29 colon = system: HT29 colon
IGROV1 ovarian = system: IGROV1 ovarian
K-562 leukemia = system: K-562 leukemia
KM12 colon = system: KM12 colon
LOX IMVI melanoma = system: LOX IMVI melanoma
M14 melanoma = system: M14 melanoma
MALME-3M melanoma = system: MALME-3M melanoma
MCF7 breast = system: MCF7 breast
MDA-MB-435 = system: MDA-MB-435
MDA-N = system: MDA-N
MOLT-4 leukemia = system: MOLT-4 leukemia
NCI-H226 lung = system: NCI-H226 lung
NCI-H23 lung = system: NCI-H23 lung
NCI-H460 lung = system: NCI-H460 lung
NCI-H522 lung = system: NCI-H522 lung
NCI/ADR-RES ovarian = system: NCI/ADR-RES ovarian
OVCAR-3 ovarian = system: OVCAR-3 ovarian
OVCAR-4 ovarian = system: OVCAR-4 ovarian
OVCAR-5 ovarian = system: OVCAR-5 ovarian
OVCAR-8 ovarian = system: OVCAR-8 ovarian
RPMI-8226 leukemia = system: RPMI-8226 leukemia
RXF 393 renal = system: RXF 393 renal
SF-268 CNS = system: SF-268 CNS
SF-295 CNS = system: SF-295 CNS
SF-539 CNS = system: SF-539 CNS
SK-MEL-28 melanoma = system: SK-MEL-28 melanoma
SK-MEL-5 melanoma = system: SK-MEL-5 melanoma
SK-OV-3 ovarian = system: SK-OV-3 ovarian
SN12C renal = system: SN12C renal
SNB-19 CNS = system: SNB-19 CNS
SR leukemia = system: SR leukemia
SW-620 colon = system: SW-620 colon
T-47D breast = system: T-47D breast
TK-10 renal = system: TK-10 renal
UACC-257 melanoma = system: UACC-257 melanoma
UACC-62 melanoma = system: UACC-62 melanoma
UO-31 renal = system: UO-31 renal
PC-3 prostate = system: PC-3 prostate
SK-MEL-2 melanoma = system: SK-MEL-2 melanoma
SNB-75 CNS = system: SNB-75 CNS
U251 CNS = system: U251 CNS

COC1OC(CBr)C(OC(c2ccccc2)(c2ccccc2)c2ccccc2)C(OC(c2ccccc2)(c2ccccc2)c2ccccc2)C1OC(c1ccccc1)(c1ccccc1)c1ccccc1 (stereo not given)
TGI (786-0 renal): > 100 µM | TGI (A498 renal): > 100 µM | TGI (A549 NSCLC): > 100 µM | TGI (ACHN renal): > 100 µM | TGI (BT-549 breast): > 100 µM | TGI (CAKI-1 renal): > 100 µM | TGI (CCRF-CEM leukemia): > 100 µM | TGI (COLO 205 colon): > 100 µM | TGI (DU-145 prostate): > 100 µM | TGI (EKVX NSCLC): 70.2 µM | TGI (HCC-2998 colon): > 100 µM | TGI (HCT-116 colon): > 100 µM | TGI (HCT-15 colon): > 100 µM | TGI (HL-60(TB) leukemia): > 100 µM | TGI (HOP-62 NSCLC): > 100 µM | TGI (HOP-92 NSCLC): 52.4 µM | TGI (HS 578T breast): 89.4 µM | TGI (HT29 colon): > 100 µM | TGI (IGROV1 ovarian): > 100 µM | TGI (K-562 leukemia): > 100 µM | TGI (KM12 colon): > 100 µM | TGI (LOX IMVI melanoma): > 100 µM | TGI (M14 melanoma): > 100 µM | TGI (MALME-3M melanoma): > 100 µM | TGI (MCF7 breast): > 100 µM | TGI (MDA-MB-435): > 100 µM | TGI (MDA-N): > 100 µM | TGI (MOLT-4 leukemia): > 100 µM | TGI (NCI-H226 lung): 96.3 µM | TGI (NCI-H23 lung): > 100 µM | TGI (NCI-H460 lung): > 100 µM | TGI (NCI-H522 lung): 40.8 µM | TGI (NCI/ADR-RES ovarian): > 100 µM | TGI (OVCAR-3 ovarian): 28.6 µM | TGI (OVCAR-4 ovarian): 60.8 µM | TGI (OVCAR-5 ovarian): > 100 µM | TGI (OVCAR-8 ovarian): > 100 µM | TGI (RPMI-8226 leukemia): > 100 µM | TGI (RXF 393 renal): > 100 µM | TGI (SF-268 CNS): > 100 µM | TGI (SF-295 CNS): > 100 µM | TGI (SF-539 CNS): 68.7 µM | TGI (SK-MEL-28 melanoma): > 100 µM | TGI (SK-MEL-5 melanoma): > 100 µM | TGI (SK-OV-3 ovarian): 60.7 µM | TGI (SN12C renal): > 100 µM | TGI (SNB-19 CNS): > 100 µM | TGI (SR leukemia): > 100 µM | TGI (SW-620 colon): > 100 µM | TGI (T-47D breast): > 100 µM | TGI (TK-10 renal): > 100 µM | TGI (UACC-257 melanoma): > 100 µM | TGI (UACC-62 melanoma): > 100 µM | TGI (UO-31 renal): 36.8 µM

CC(=O)Nc1ccc2oc(=O)c3ccccc3c2c1
TGI (786-0 renal): > 100 µM | TGI (A498 renal): > 100 µM | TGI (A549 NSCLC): > 100 µM | TGI (ACHN renal): > 100 µM | TGI (BT-549 breast): > 100 µM | TGI (CAKI-1 renal): > 100 µM | TGI (CCRF-CEM leukemia): > 100 µM | TGI (COLO 205 colon): > 100 µM | TGI (DU-145 prostate): > 100 µM | TGI (EKVX NSCLC): > 100 µM | TGI (HCC-2998 colon): > 100 µM | TGI (HCT-116 colon): > 100 µM | TGI (HCT-15 colon): > 100 µM | TGI (HL-60(TB) leukemia): > 100 µM | TGI (HOP-62 NSCLC): > 100 µM | TGI (HOP-92 NSCLC): > 100 µM | TGI (HS 578T breast): > 100 µM | TGI (HT29 colon): > 100 µM | TGI (IGROV1 ovarian): > 100 µM | TGI (K-562 leukemia): > 100 µM | TGI (KM12 colon): > 100 µM | TGI (LOX IMVI melanoma): > 100 µM | TGI (M14 melanoma): > 100 µM | TGI (MALME-3M melanoma): > 100 µM | TGI (MCF7 breast): > 100 µM | TGI (MDA-MB-435): > 100 µM | TGI (MDA-N): > 100 µM | TGI (MOLT-4 leukemia): > 100 µM | TGI (NCI-H226 lung): > 100 µM | TGI (NCI-H23 lung): > 100 µM | TGI (NCI-H460 lung): > 100 µM | TGI (NCI-H522 lung): > 100 µM | TGI (NCI/ADR-RES ovarian): > 100 µM | TGI (OVCAR-3 ovarian): > 100 µM | TGI (OVCAR-4 ovarian): > 100 µM | TGI (OVCAR-5 ovarian): > 100 µM | TGI (OVCAR-8 ovarian): > 100 µM | TGI (PC-3 prostate): > 100 µM | TGI (RPMI-8226 leukemia): > 100 µM | TGI (RXF 393 renal): > 100 µM | TGI (SF-268 CNS): > 100 µM | TGI (SF-295 CNS): > 100 µM | TGI (SF-539 CNS): > 100 µM | TGI (SK-MEL-2 melanoma): > 100 µM | TGI (SK-MEL-28 melanoma): > 100 µM | TGI (SK-MEL-5 melanoma): > 100 µM | TGI (SN12C renal): > 100 µM | TGI (SNB-19 CNS): > 100 µM | TGI (SNB-75 CNS): > 100 µM | TGI (SR leukemia): > 100 µM | TGI (SW-620 colon): > 100 µM | TGI (T-47D breast): > 100 µM | TGI (U251 CNS): > 100 µM | TGI (UACC-257 melanoma): > 100 µM | TGI (UACC-62 melanoma): > 100 µM | TGI (UO-31 renal): > 100 µM
